Consider 16 molecules from article PMC7435983, “Galantamine-Curcumin Hybrids as Dual-Site Binding Acetylcholinesterase Inhibitors” (Molecules, 2020).

Where two headings read alike, the source gives them in different places. Marks after values point to notes of the source that are not given here. A value given as a limit tells only on which side of the number the result lay.

As usually defined, the IC50 is the concentration at which inhibition is half-maximal. By half-life is commonly meant how long it takes for the measured level to halve.

In series [1] the test system is Neuro-2A cells. Nature of the series: Neurotoxicity test, MTT-dye reduction assay. In kind it is cell-based, Murine. Particulars: Mus musculus, N2a, 72-h incubation. The method, then: The neurotoxicity of the GAL-CU hybrids was tested on Neuro-2A cells, as described in Materials and methods. […] Only five of the hybrids were less toxic than CU. One of them, compound 8b, is among the best-scored compounds; two of them, compounds 4e and 4f, are from the middle GoldScore range; and two of them, compounds 4a and 4b, belong to the low GoldScore range.
Murine neuroblastoma Neuro-2A cells (German collection DSMZ, Braunschweig, Germany) were cultivated under standard conditions: complete medium (90% DMEM, 10% heat-inactivated FBS, and non-essential amino acids); 37 °C and 5% CO2 in fully humidified atmosphere. The cell line was kept in the logarithmic growth phase by splitting 1:4 once a week using trypsin/EDTA. About 30% of the cells grew like neuronal cells. For the experimental evaluation of the cytotoxicity Neuro-2A, cells were plated in 96-well flat-bottomed cell culture plates at the recommended density of 1 × 10^6 cells/25cm^2. After 24 h, the cells were treated with various concentrations of the investigational compounds, and after 72-h incubation, an MTT-dye reduction assay was performed. Briefly, at the end of incubation, an MTT stock solution (10mg/mL in PBS) was added (0.01 mL/well). Plates were further incubated at 37 °C for 4 h. Next, the formazan crystals were dissolved by the addition of 0.110 mL/well 5% formic acid in 2-propanol (v/v). Absorption was measured at 580nm wavelength on an automated ELISA reader Labexim LMR1. At least six wells per concentration were used, and data were processed using the GraphPad Prism 5.0 software 2.0 (San Diego, CA, USA).
In general terms: Formazan colour is commonly taken as a measure of viable cells.

Series [2] in a line: Prediction of PK parameters by QSPR models. The source says: The key PK parameters were predicted by quantitative […] (QSPRs) models derived previously. Three PK parameters were modelled: the steady state volume of distribution (VD^ss), free fraction of drug in plasma (fu) and unbound clearance (CLu). […]
Series [3] relates to Neuro-2A cells. Particulars: cited from earlier work.
For series [4] the following is noted: cited from earlier work.
Series [5] deals with eeAChE (Electrophorus electricus AChE) (Electrophorus electricus, UniProt O42275). Nature of the series: biochemical. The method, then:
As the docking studies were performed on rhAChE, while for the in vitro measurements was used AChE from electric eel (eeAChE), it was reasonably to question their relevance.
AChE activity was assayed as described by Ellman et al., with some modifications. […] The mixtures were incubated for 30 min at room temperature before the addition of 30 μL of the substrate solution (15 μL […], 15 μL 0.6 mM ATCI in buffer, pH 7.6).

Chain of eeAChE (Electrophorus electricus AChE) (O42275 24-633): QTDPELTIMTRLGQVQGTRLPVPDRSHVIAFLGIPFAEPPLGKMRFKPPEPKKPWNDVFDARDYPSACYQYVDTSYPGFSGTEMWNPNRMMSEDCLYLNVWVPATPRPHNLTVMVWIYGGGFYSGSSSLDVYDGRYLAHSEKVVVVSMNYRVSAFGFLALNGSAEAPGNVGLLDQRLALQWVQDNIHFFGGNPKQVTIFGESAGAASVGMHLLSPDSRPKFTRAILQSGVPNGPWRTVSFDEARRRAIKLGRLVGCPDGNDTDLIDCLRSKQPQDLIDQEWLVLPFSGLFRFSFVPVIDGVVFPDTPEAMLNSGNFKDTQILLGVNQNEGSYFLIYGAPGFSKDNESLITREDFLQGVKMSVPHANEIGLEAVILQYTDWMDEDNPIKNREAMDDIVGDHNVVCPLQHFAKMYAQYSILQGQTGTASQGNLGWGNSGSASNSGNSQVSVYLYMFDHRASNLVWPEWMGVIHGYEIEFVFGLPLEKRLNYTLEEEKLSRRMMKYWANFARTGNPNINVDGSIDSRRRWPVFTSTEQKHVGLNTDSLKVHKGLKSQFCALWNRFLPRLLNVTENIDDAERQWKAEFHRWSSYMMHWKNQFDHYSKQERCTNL

On to `COc1ccc2c3c1O[C@H]1C[C@@H](O)C=C[C@@]31CCN(Cc1cccc(/C=C/C(=O)c3ccccc3)c1)C2` [6a], for which the IC50 in the series with Neuro-2A cells [1] was determined as 12.1 µM.

Take `COc1ccc2c3c1O[C@H]1C[C@@H](O)C=C[C@@]31CCN(C)C2` [GAL, Galantamine]: in series [2], the half-life is 284 min. Besides, in the series with Neuro-2A cells [3], the IC50 is more than 50 µM. In addition, the VDss in series [4] is on record as 2.30 ^a L/kg. The fu in series [4] (free fraction of drug in plasma) is listed as 0.83 ^a. Moreover, in series [4] (total clearance), the CL was 0.336 ^a L/h/kg. In the series with Neuro-2A cells [1], `COc1ccc2c3c1O[C@H]1C[C@@H](O)C=C[C@@]31CCN(Cc1cccc(C(=O)/C=C/c3ccc(C)cc3)c1)C2` [8f] came in with an IC50 of 24.3 µM. The same measure, in the same setting: the same measure for `COc1cc(/C=C/C(=O)CC(=O)/C=C/c2ccc(O)c(OC)c2)ccc1O` [CU, (1E,6E)-1,7-Bis(4-hydroxy-3-methoxyphenyl)hepta-1,6-diene-3,5-dione, reference compound]: 26.3 µM; for `COc1ccc2c3c1O[C@H]1C[C@@H](O)C=C[C@@]31CCN(Cc1cccc(C(=O)/C=C/c3ccc(C)c(C)c3)c1)C2` [8h]: 25 µM.

`COc1ccc2c3c1O[C@H]1C[C@@H](O)C=C[C@@]31CCN(CCCCC(=O)/C=C/c1ccc(C)cc1)C2` [4f]: the IC50 in series [5] came out at 33 nM; in the series on Neuro-2A cells [1], 34.4 µM. Further, the “Times More Active Than GAL” value in series [5] turned out to be 110.

`COc1ccc2c3c1O[C@H]1C[C@@H](O)C=C[C@@]31CCN(CCCCC(=O)/C=C/c1ccccc1)C2` [4a]: the IC50 in series [5] turned out to be 46 nM; in the series with Neuro-2A cells [1], 30.7 µM. Also, the “Times More Active Than GAL” value in series [5] was determined as 75. In the series on Neuro-2A cells [1], `COc1ccc2c3c1O[C@H]1C[C@@H](O)C=C[C@@]31CCN(Cc1cccc(C(=O)/C=C/c3cccc(C)c3)c1)C2` [8g] gave an IC50 of 17.8 µM.

Take `COc1ccc2c3c1O[C@H]1C[C@@H](O)C=C[C@@]31CCN(CCCCC(=O)/C=C/c1cccc(C)c1)C2` [4g]: in the series on Neuro-2A cells [1], the IC50 came to 23.7 µM. Same read-out and setting: the same measure for `COc1cccc(/C=C/C(=O)c2cccc(CN3CC[C@@]45C=C[C@H](O)C[C@@H]4Oc4c(OC)ccc(c45)C3)c2)c1` [8c]: 25.6 µM. In the case of `COc1ccc2c3c1O[C@H]1C[C@@H](O)C=C[C@@]31CCN(CCCCC(=O)/C=C/c1ccc3c(c1)OCO3)C2` [4e], in series [5], the IC50 was 36 nM and the “Times More Active Than GAL” value is on record as 98. Moreover, in the series with Neuro-2A cells [1], the IC50 was 42.9 µM. Molecule `COc1cccc(/C=C/C(=O)CCCCN2CC[C@@]34C=C[C@H](O)C[C@@H]3Oc3c(OC)ccc(c34)C2)c1` [4c] displayed an IC50 with Neuro-2A cells [1] of 24.1 µM. On to `COc1ccc(/C=C/C(=O)c2cccc(CN3CC[C@@]45C=C[C@H](O)C[C@@H]4Oc4c(OC)ccc(c45)C3)c2)cc1` [8b], for which, in series [5], the IC50 amounted to 86 nM and the “Times More Active Than GAL” value amounted to 41. In the series with Neuro-2A cells [1], this molecule gave an IC50 of 28.9 µM. For the molecule `COc1ccc(/C=C/C(=O)CCCCN2CC[C@@]34C=C[C@H](O)C[C@@H]3Oc3c(OC)ccc(c34)C2)cc1` [4b], in series [5], the IC50 was determined as 20 nM and the “Times More Active Than GAL” value is listed as 186. For the same molecule, in the series with Neuro-2A cells [1], the IC50 turned out to be 52.5 µM. `COc1ccc(C(=O)/C=C/c2cccc(CN3CC[C@@]45C=C[C@H](O)C[C@@H]4Oc4c(OC)ccc(c45)C3)c2)cc1` [6b]: the midpoint of inhibition with Neuro-2A cells [1], the IC50, lay at 7.91 µM.

For `COc1ccc2c3c1O[C@H]1C[C@@H](O)C=C[C@@]31CCN(CCCCC(=O)/C=C/c1ccc(C)c(C)c1)C2` [4h], it took 21.9 µM to reach half-maximal inhibition in the series on Neuro-2A cells [1] (IC50).
